Assay results reported in patent EP0113632A1, “Process for the preparation of halogen methylates of levallorphane, and peripheral narcotic antagonist pharmaceutical compositions containing them” (SANOFI S.A., priority 1982, dated 1984).

Assays:
[1] = tested on: effet constipant de la morphine; assay: Charcoal meal intestinal transit test (Green, modified): antagonism of the constipating effect of morphine; type: in vivo, souris; conditions: for ED50: Mus musculus, sc, read-out: Antagonisme à l'effet constipant DI50c; for ED50 / Antagonisme à l'effet constipant DI50c: female mice fasted 20 h, s.c. 5 min before morphine 12 mg/kg s.c. and charcoal meal, sacrifice after 30 min, dose inhibiting the effect by 50 %, extrapolated from log dose-response regression, limits in parentheses
Procedure: L'antagonisme à l'effet constipant de la morphine des halomèthylates de lévallorphan de la présente invention a été évalué selon le test décrit par A.F. Green (Pr. J. Pharmacol. Chemother. 1959, 14, 26), opportunément modifié.
On utilise trois groupes de souris femelles de 20 g environ à jeun depuis 20 heures. A un groupe témoin, on administre par voie orale un repas constitué par 0,2 ml d'un mélange de gomme arabique 5 % (6 ml), farine (2 g) et charbon (1 g). Au deuxième groupe on administre par la voie sous-cutanée 12 mg/kg de morphine et, immédiatement après, le repas au charbon ci-dessus. Le troisième groupe est traité par l'antagoniste sous examen par voie sous-cutanée, puis, après 5 minutes, par 12 mg/kg de morphine par voie sous-cutanée et, tout de suite après, par le repas au charbon. Après trente minutes, les animaux sont sacrifiés pour l'évaluation de la portion intestinale parcourue par le charbon, exprimée en pour cent de la longueur totale de l'intestin grèle.
(§1) L'activité des substances à activité antagoniste périphérique des narcotiques est évaluée sur la base de l'inhibition pour cent de l'effet constipant et de l'effet analgésique de la morphine. La dose qui inhibe de 50 % lesdits effets (DI50c pour l'effet constipant et […] pour l'effet analgésique) a été extrapolée de la droite de régression log dose-réponse en appliquant l'analyse de la variance par régression linéaire.

[2] = tested on: effet analgésique de la morphine; assay: Hot plate test: antagonism of the analgesic effect of morphine; type: in vivo, souris; conditions: for ED50: Mus musculus, sc, read-out: Antagonisme à l'effet analgésique DI50a; for ED50 / Antagonisme à l'effet analgésique DI50a: female mice, s.c. 5 min before morphine 24 mg/kg s.c., hot plate 30 min after morphine, dose inhibiting the effect by 50 %, extrapolated from log dose-response regression, limits in parentheses; for DI50a/DI50c: ratio of DI50 for the analgesic effect (hot plate) to DI50 for the constipating effect (charcoal meal)
Procedure: L'antagonisme à l'effet analgésique de la morphine a été évalué selon le test classique pour l'analgésie de la plaque chauffante (Eddy et Leibach, J. Pharmacol. 1953, 107, 385, modifié par Janseen et Jagenau, J. Pharm. Pharmacol. 1957, 9, 381-400). Ce test est très sensible pour l'action des antogonistes des opiacés.
On utilise des souris femelles de 18 à 22 g. Les substances sont administrées en solution physiologique (20 ml/kg) par voie sous-cutanée 5 minutes avant l'administration de la morphine (24 mg/kg s.c.). Trente minutes après la morphine, on place les animaux sur la plaque chauffante et l'on évalue le temps de réaction des animaux qui présentent la réaction nocicéptive (léchage des pattes).
as §1

Compound | ED50 [1] | ED50 [2] | DI50a/DI50c [2] | activité antagoniste, périphérique ou centrale ([1]; conclusion in words, covers both the constipation and the analgesia test) | Antagonisme à l'effet constipant DI50c [1] | Antagonisme à l'effet analgésique DI50a [2] | activité par rapport à celle du bromoallylate de lévallorphan ([1]; test of antagonism of the constipating effect of morphine, fold higher activity)
C=CC[N+]1(C)CCC23c4c5ccc(O)c4OC2C(O)C=CC3C1C5 (single isomer, unassigned) [bromométhylate de nalorphine] | 3.7 mg/kg | 8.6 mg/kg | 2,32 | – | – | – | –
C=CC[N+]1(C)CC[C@]23CCCC[C@H]2[C@H]1Cc1ccc(O)cc13 (single isomer, unassigned) [iodoallylate de lévorphanol] | – | – | – | inactif | 50 mg/kg | 50 mg/kg | –
C=CC[N+]1(C)CC[C@]23CCCC[C@H]2[C@H]1Cc1ccc(O)cc13 (single isomer, unassigned) [iodométhylate de lévallorphan] | – | 50 mg/kg | 6,7 | – | 7,6 mg/kg (4,5 - 13,0) | – | > 2 fois
C=CC[N+]1(CC=C)CC[C@]23CCCC[C@H]2[C@H]1Cc1ccc(O)cc13 [bromoallylate de lévallorphan] | 15.6 mg/kg | 15.2 mg/kg | 0,97 | – | – | – | –
C=CCN1CC[C@]23c4c5ccc(O)c4O[C@H]2C(=O)CC[C@@]3(O)[C@H]1C5 [naloxone, N-allyl-noroxymorphone] | 0.8 mg/kg | 0.06 mg/kg | 0,08 | – | – | – | –
C=CC[N+]1(C)CCC23c4c5ccc(O)c4OC2C(=O)CCC3(O)C1C5.COS(=O)(=O)[O-] (stereo not drawn) [sulfométhylate de naloxone] | – | – | – | – | 5,8 mg/kg (2,9 - 11,5) | 1,6 mg/kg (0,7 - 3,6) | –
